Results as given in patent US12469647B2, “Electrolytic capacitor” (Panasonic Intellectual Property Management Co., Ltd., priority 2020, dated 2025).

Assay: acid dissociation constant (pKa) of the conjugate acid of the base component
Details: water
Description: The pKa of the conjugate acid of the base is the pKa of the cation of the base.

Row | pKa | Compound
1 | 7.5 | CCCCN1CCOCC1 [N-butylmorpholine]
2 | 9.5 | CC(C)CN(CC(C)C)CC(C)C [triisobutylamine]

Row | Compound | pKa
3 | CCCCNCCCC [dibutylamine] | 11.3
